Experimental data from US20050079526A1, “Methods and apparatuses for characterizing refolding and aggregation of biological molecules” (Affinium Pharmaceuticals, Inc., priority 2002, published 2005).

Legend:
the protein = assay: extent of unfolding of a protein measured by fluorescence versus time after temperature jump to 55° C. (rate of unfolding ku); assay type: binding; details: fluorescence versus time at 55° C.; 5% ethanol; 10% glycerol; AND^+; compared with control solution; FIG. 6
Method: Multiple identical protein solutions were arranged in two-dimensional arrays of reservoirs which were incubated at different temperatures. These samples were alternatively illuminated with UV light and monochromatic red light. The fluorescence emitted and the light scattered at 90° were measured from the top of the arrangement. The fluorescence emitted and the light scattered intensity data were collected at intervals of time of incubation for all the temperatures simultaneously. In another example, the protein was incubated in 5% ethanol; 10% glycerol, AND^+ or a control solution and the extent of unfolding was measured at 55° C. A plots of fluorescence at the given temperature versus time was automatically built for all the samples, and the rate of unfolding ku was obtained from the fitted exponential grow portion of the curves for the proteins jumped to 55° C.

[1] = tested on: refolded Gaf domain of PDE10; assay: thermal aggregation (light scattering) of refolded protein, temperature of aggregation (Tag) with ligands; assay type: binding; details: refolded Gaf domain of PDE10 in presence of ligand; light scattering versus temperature; FIG. 10
Method: The fluorescence emitted and the light scattered at 90° were measured from the top of the arrangement. The fluorescence emitted and the light scattered intensity data were collected at intervals of time of incubation for all the temperatures simultaneously.

| Structure (SMILES) | effect on the stability of the protein (unfolding, ku) (the protein) | change of temperature of aggregation (Tag) [1] |
| --- | --- | --- |
| CCO [ethanol] | destabilizing effect or no effect at all |  |
| NC(=O)c1ccc[n+]([C@@H]2O[C@H](COP(=O)([O-])OP(=O)(O)OC[C@H]3O[C@@H](n4cnc5c(N)ncnc54)[C@H](O)[C@@H]3O)[C@@H](O)[C@H]2O)c1 [AND^+] | strongest stabilizing effect |  |
| OCC(O)CO [Glycerol, glycerol] | stabilizing effect |  |
| Nc1nc2c(ncn2[C@@H]2O[C@@H]3COP(=O)(O)O[C@H]3[C@H]2O)c(=O)[nH]1 [cGMP] |  | increased the Tag |
